Drawing on US20100227859A1, “TRICYCLIC COMPOUNDS AS MATRIX METALLOPROTEINASE INHIBITORS” (priority 2007, published 2010), this text covers IC50 for 31 compounds.

Each structure is given as a SMILES string.

Sequence of purified human MMP-12 enzyme (P39900 106-470): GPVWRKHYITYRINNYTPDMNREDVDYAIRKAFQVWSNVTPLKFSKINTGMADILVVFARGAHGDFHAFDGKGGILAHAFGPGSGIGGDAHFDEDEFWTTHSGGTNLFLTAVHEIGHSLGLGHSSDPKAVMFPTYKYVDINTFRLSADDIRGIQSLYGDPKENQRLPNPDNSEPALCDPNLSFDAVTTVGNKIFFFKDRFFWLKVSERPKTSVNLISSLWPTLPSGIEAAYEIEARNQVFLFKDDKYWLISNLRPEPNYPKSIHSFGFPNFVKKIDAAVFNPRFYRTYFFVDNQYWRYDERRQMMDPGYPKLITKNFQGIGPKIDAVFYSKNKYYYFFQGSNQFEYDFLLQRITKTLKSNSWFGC

The assay has as its target purified human MMP-12 enzyme (Homo sapiens, UniProt P39900). The assay can be described thus: MMP-12 FRET assay. The assay is classed as biochemical. To be noted: substrate 20 μM, room temperature. The procedure:
Compounds according to the present teachings were tested in an MMP-12 FRET assay as follows. To each well of black polystyrene 96-well plate was added assay buffer (50 mM HEPES (pH 7.4), 100 mM NaCl, 5 mM CaCl2 and 0.005% Brij-35 (Polyoxyethyleneglycol dodecyl ether, Pierce cat#20150), purified human MMP-12 enzyme, and varied concentrations of test compounds (prepared by serial dilution of a stock solution in 100% DMSO). The plates were incubated at room temperature for 30 minutes. The enzymatic reactions were initiated by addition of a substrate, MCA-Pro-Leu-Gly-Leu-Dpa(DNP)-Ala-Arg, containing a fluorescent group (7-methoxycoumarin, MCA) and a 2,4-dinitrophenyl group (DNP), to a final concentration of 20 μM. The final DMSO concentration in the assay was 10%. The reaction was monitored for 30 minutes at room temperature and the initial rate of the cleavage reaction was determined using a fluorescence plate reader (λex: 325 nm, λem: 395 nm). Plots of the inhibitor concentration vs. the initial cleavage rate were fit to the following equation: y=Vmax*(1−(x^n/(K^n+x^n))), whereby x=inhibitor concentration, y=initial rate, Vmax=initial rate in the absence of inhibitor, n=slope factor, and K=IC50 for the inhibition curve.
Broadly, the IC50 is the concentration that gives 50% inhibition. High values mean a need for much substance, low ones inhibition by little substance. In turn, `CC(C)[C@H](NS(=O)(=O)c1ccc2c(c1)sc1ccc(-c3ccc(-c4ccc(-c5ccc(Cl)nc5)nc4)nc3)cc12)C(=O)O` [Compound 54, (S)-2-[8-(6″-Chloro-[2,3′;6′,3″]terpyridin-5-yl)-dibenzothiophene-3-sulfonylamino]-3-methyl-butanoic acid] returned an IC50 of 483 nM.

`CC(C)[C@H](NS(=O)(=O)c1ccc2c(c1)oc1ccc(-c3ccc(C(N)=O)s3)cc12)C(=O)O` [Compound 111, (S)-2-(8-(5-carbamoylthiophen-2-yl)dibenzo[b,d]furan-3-sulfonamido)-3-methylbutanoic acid] returned an IC50 of less than 1.5 nM.

`CC(C)[C@@H](NS(=O)(=O)c1ccc2oc3cc(-c4nc(C(F)(F)F)c(Cl)s4)ccc3c2c1)C(=O)O` [Compound 295, (R)-2-(7-(5-chloro-4-(trifluoromethyl)thiazol-2-yl)dibenzo[b,d]furan-2-sulfonamido)-3-methylbutanoic acid] yielded a concentration for half-maximal inhibition (IC50) of 15 nM. This counts as double-digit nanomolar.

`CC(C)[C@H](NS(=O)(=O)c1ccc2c(c1)oc1cc(-c3sc(Cl)c(Cl)c3Cl)ccc12)C(=O)O` [Compound 86, (S)-3-methyl-2-(7-(3,4,5-trichlorothiophen-2-yl)dibenzo[b,d]furan-3-sulfonamido)butanoic acid] registered a 50% inhibitory concentration (IC50) of less than 1.5 nM.

Turning to `CC(C)[C@H](NS(=O)(=O)c1ccc2c(c1)sc1cc(-c3ccco3)ccc12)C(=O)O` [Compound 193, (S)-2-(7-(furan-2-yl)dibenzo[b,d]thiophene-3-sulfonamido)-3-methylbutanoic acid], the IC50 is less than 1.5 nM.

Take `CC(C)[C@@H](NS(=O)(=O)c1ccc2oc3cc(-c4ccc(Cl)o4)ccc3c2c1)C(=O)O` [Compound 290, (R)-2-(7-(5-chlorofuran-2-yl)dibenzo[b,d]furan-2-sulfonamido)-3-methylbutanoic acid]: half-maximal inhibition (IC50) was put at 4.4 nM.

As to `CC(C)[C@@H](NS(=O)(=O)c1ccc2oc3cc(-c4cc5ccccc5o4)ccc3c2c1)C(=O)O` [Compound 119, (R)-2-(7-(benzofuran-2-yl)dibenzo[b,d]furan-2-sulfonamido)-3-methylbutanoic acid], the IC50 came to 8.3 nM.

For the compound `CC(C)[C@@H](NS(=O)(=O)c1ccc2oc3cc(-c4cc5ccccc5s4)ccc3c2c1)C(=O)O` [Compound 100, (R)-2-(7-(benzo[b]thiophen-2-yl)dibenzo[b,d]furan-2-sulfonamido)-3-methylbutanoic acid], the IC50 came to 4.9 nM.

In the case of `CC(C)[C@@H](NS(=O)(=O)c1ccc2oc3cc(-c4cn[nH]c4)ccc3c2c1)C(=O)O` [Compound 103, (R)-2-(7-(1H-pyrazol-4-yl)dibenzo[b,d]furan-2-sulfonamido)-3-methylbutanoic acid], inhibition was half-maximal at 16 nM (IC50). This IC50 lies about 3.3-fold higher than the previous one.

`CC(C)[C@H](NS(=O)(=O)c1ccc2c(c1)oc1ccc(-c3cnn(C)c3)cc12)C(=O)O` [Compound 18, (S)-3-methyl-2-(8-(1-methyl-1H-pyrazol-4-yl)dibenzo[b,d]furan-3-sulfonamido)butanoic acid] registered a half-inhibitory concentration (IC50) of less than 1.5 nM.

On to `CC(C)[C@H](NS(=O)(=O)c1ccc2c(c1)oc1cc(-c3noc(C4CC4)n3)ccc12)C(=O)O` [Compound 187, (S)-2-(7-(5-cyclopropyl-1,2,4-oxadiazol-3-yl)dibenzo[b,d]furan-3-sulfonamido)-3-methylbutanoic acid], for which half-maximal inhibition (IC50) was put at 5.5 nM.

Compound `COCC#Cc1ccc2c(c1)sc1cc(S(=O)(=O)N[C@@H](C(=O)O)C(C)C)ccc12` [Compound 90, (R)-2-(7-(3-methoxyprop-1-ynyl)dibenzo[b,d]thiophene-3-sulfonamido)-3-methylbutanoic acid] had an IC50 of 15 nM.

On to `Cc1c(-c2ccc3oc4cc(S(=O)(=O)N[C@H](C(=O)O)C(C)C)ccc4c3c2)cnn1-c1ccccc1` [Compound 162, (S)-3-methyl-2-(8-(5-methyl-1-phenyl-1H-pyrazol-4-yl)dibenzo[b,d]furan-3-sulfonamido)butanoic acid], for which the IC50 was less than 1.5 nM.

Compound `CC(C)[C@H](NS(=O)(=O)c1ccc2c(c1)oc1ccc(-c3noc(-c4ccc(C(F)(F)F)cc4)n3)cc12)C(=O)O` [Compound 271, (S)-3-methyl-2-(8-(5-(4-(trifluoromethyl)phenyl)-1,2,4-oxadiazol-3-yl)dibenzo[b,d]furan-3-sulfonamido)butanoic acid] displayed an IC50 of 3.7 nM. That is a single-digit nanomolar value.

The compound `COc1ccc(-c2ccc3c(c2)oc2ccc(S(=O)(=O)N[C@@H](C(=O)O)C(C)C)cc23)cn1` [Compound 102, (R)-2-(7-(6-methoxypyridin-3-yl)dibenzo[b,d]furan-2-sulfonamido)-3-methylbutanoic acid] returned an IC50 of less than 1.5 nM.

As for `CC(C)[C@@H](NS(=O)(=O)c1ccc2oc3cc(-c4noc(CC(C)(C)C)n4)ccc3c2c1)C(=O)O` [Compound 189, (R)-3-methyl-2-(7-(5-neopentyl-1,2,4-oxadiazol-3-yl)dibenzo[b,d]furan-2-sulfonamido)butanoic acid], the IC50 stood at 4.5 nM. That is a single-digit nanomolar value.

In the case of `COC#Cc1ccc2oc3cc(S(=O)(=O)N[C@H](C(=O)O)C(C)C)ccc3c2c1` [Compound 38, (S)-2-(8-(methoxyethynyl)dibenzo[b,d]furan-3-sulfonamido)-3-methylbutanoic acid], the IC50 is less than 1.5 nM.

On to `CC(C)[C@@H](NS(=O)(=O)c1ccc2sc3cc(-c4nccs4)ccc3c2c1)C(=O)O` [Compound 285, (R)-3-methyl-2-(7-(thiazol-2-yl)dibenzo[b,d]thiophene-2-sulfonamido)butanoic acid], for which the IC50 is 220 nM.

Compound `CC(C)[C@H](NS(=O)(=O)c1ccc2c(c1)oc1ccc(-c3nc4ccc(F)cc4s3)cc12)C(=O)O` [Compound 209, (S)-2-(8-(6-fluorobenzo[d]thiazol-2-yl)dibenzo[b,d]furan-3-sulfonamido)-3-methylbutanoic acid] came in with an IC50 of less than 1.5 nM.

For `CC(C)[C@H](NS(=O)(=O)c1ccc2c(c1)oc1ccc(/C=C/C3CCCCC3)cc12)C(=O)O` [Compound 35, (S,E)-2-(8-(2-cyclohexylvinyl)dibenzo[b,d]furan-3-sulfonamido)-3-methylbutanoic acid], the IC50 is less than 1.5 nM.

Consider `CC(C)[C@H](NS(=O)(=O)c1ccc2c(c1)oc1ccc(C(=N)Nc3ccccc3)cc12)C(=O)O` [Compound 87, (S)-3-methyl-2-(8-(N-phenylcarbamimidoyl)dibenzo[b,d]furan-3-sulfonamido)butanoic acid], for which the IC50 turned out to be 19 nM. In other words, the double-digit nanomolar range.

As to `CC(C)[C@H](NS(=O)(=O)c1ccc2c(c1)oc1ccc(-c3ncc(Cl)s3)cc12)C(=O)O` [Compound 224, (S)-2-(8-(5-chlorothiazol-2-yl)dibenzo[b,d]furan-3-sulfonamido)-3-methylbutanoic acid], the IC50 was less than 1.5 nM.

`CCCc1ccc(-c2ccc3c(c2)oc2cc(S(=O)(=O)N[C@H](C(=O)O)C(C)C)ccc23)s1` [Compound 232, (S)-3-methyl-2-(7-(5-propylthiophen-2-yl)dibenzo[b,d]furan-3-sulfonamido)butanoic acid] came in with an IC50 of less than 1.5 nM.

`CC(C)[C@H](NS(=O)(=O)c1ccc2c(c1)oc1ccc(-c3ccc(-c4ccon4)s3)cc12)C(=O)O` [Compound 216, (S)-2-(8-(5-(isoxazol-3-yl)thiophen-2-yl)dibenzo[b,d]furan-3-sulfonamido)-3-methylbutanoic acid] showed an IC50 of 4.5 nM.

Consider `CCCc1ccc(-c2ccc3c(c2)oc2ccc(S(=O)(=O)N[C@H](C(=O)O)C(C)C)cc23)s1` [Compound 246, (S)-3-methyl-2-(7-(5-propylthiophen-2-yl)dibenzo[b,d]furan-2-sulfonamido)butanoic acid], for which the IC50 stood at 6.2 nM. This IC50 and that of the compound before are within 1.5-fold of each other.

`Cc1csc(-c2ccc3sc4cc(S(=O)(=O)N[C@H](C(=O)O)C(C)C)ccc4c3c2)c1` [Compound 62, (S)-3-methyl-2-(8-(4-methylthiophen-2-yl)dibenzo[b,d]thiophene-3-sulfonamido)butanoic acid] registered an IC50 of 44 nM. Against the preceding compound, the IC50 is about 7.1-fold higher.

`CC(C)[C@H](NS(=O)(=O)c1ccc2c(c1)oc1ccc(C(=N)N3CCCC3)cc12)C(=O)O` [Compound 127, (S)-2-(8-(imino(pyrrolidin-1-yl)methyl)dibenzo[b,d]furan-3-sulfonamido)-3-methylbutanoic acid] showed an IC50 of 175 nM.

`COc1cccc2sc(-c3ccc4oc5cc(S(=O)(=O)N[C@H](C(=O)O)C(C)C)ccc5c4c3)nc12` [Compound 223, (S)-2-(8-(4-methoxybenzo[d]thiazol-2-yl)dibenzo[b,d]furan-3-sulfonamido)-3-methylbutanoic acid] yielded a half-maximal inhibitory concentration (IC50) of 13 nM. This IC50 is about 13-fold lower than that of the compound before.

With `CC(C)[C@H](NS(=O)(=O)c1ccc2c(c1)oc1cc(-c3ccco3)ccc12)C(=O)O` [Compound 78, (S)-2-(7-(furan-2-yl)dibenzo[b,d]furan-3-sulfonamido)-3-methylbutanoic acid], the IC50 is less than 1.5 nM.

Take `CC(C)[C@H](NS(=O)(=O)c1ccc2c(c1)oc1cc(-c3nc(C(F)(F)F)c(Cl)s3)ccc12)C(=O)O` [Compound 233, (S)-2-(7-(5-chloro-4-(trifluoromethyl)thiazol-2-yl)dibenzo[b,d]furan-3-sulfonamido)-3-methylbutanoic acid]: the IC50 was less than 1.5 nM.

As for `CC(C)C[C@@H](NS(=O)(=O)c1ccc2c(c1)oc1ccc(-c3noc(C(C)(C)C)n3)cc12)C(=O)O` [Compound 253, (R)-2-(8-(5-tert-butyl-1,2,4-oxadiazol-3-yl)dibenzo[b,d]furan-3-sulfonamido)-4-methylpentanoic acid], 17 nM corresponded to half-maximal inhibition (IC50).
